This is an account of results in patent US10875860B2, “Azaindenoisoquinoline compounds and uses thereof” (Purdue Research Foundation, priority 2016, dated 2020).

Like-named read-outs stand apart in the source and are kept apart here.

Series [1] addresses T1, Top1 (Homo sapiens, UniProt P11387).
T1 sequence (P11387 1-765): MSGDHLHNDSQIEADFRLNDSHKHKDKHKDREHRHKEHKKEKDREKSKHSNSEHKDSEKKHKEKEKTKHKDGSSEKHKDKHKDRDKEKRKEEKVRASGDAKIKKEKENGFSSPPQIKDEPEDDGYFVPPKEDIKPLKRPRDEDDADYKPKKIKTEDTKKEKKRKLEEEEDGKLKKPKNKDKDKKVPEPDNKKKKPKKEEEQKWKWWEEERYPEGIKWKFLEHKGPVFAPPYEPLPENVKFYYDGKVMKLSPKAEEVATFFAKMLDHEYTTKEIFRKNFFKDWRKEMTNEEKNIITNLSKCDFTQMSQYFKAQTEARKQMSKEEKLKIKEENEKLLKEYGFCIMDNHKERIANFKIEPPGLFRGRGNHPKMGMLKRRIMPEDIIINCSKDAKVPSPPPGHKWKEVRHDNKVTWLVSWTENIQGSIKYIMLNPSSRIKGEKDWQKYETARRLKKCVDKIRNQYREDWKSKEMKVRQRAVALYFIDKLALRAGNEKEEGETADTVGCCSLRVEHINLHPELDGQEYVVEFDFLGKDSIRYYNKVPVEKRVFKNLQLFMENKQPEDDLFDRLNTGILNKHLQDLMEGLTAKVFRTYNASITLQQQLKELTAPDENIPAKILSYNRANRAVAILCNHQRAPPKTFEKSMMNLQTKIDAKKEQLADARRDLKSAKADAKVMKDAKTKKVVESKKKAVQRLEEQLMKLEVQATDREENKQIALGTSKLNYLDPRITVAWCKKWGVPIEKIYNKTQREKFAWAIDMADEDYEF
Put plainly: Top1-mediated DNA cleavage assay. It counts as biochemical. Also on record: Top1 inhibitory activity level / Top1 inhibitory activity score: key to the marks not given beside the values. As to conditions: for Enzyme Inhibitory Activity Top1: DNA cleavage relative to 1 μM MJ-III-65 (19) and 1 μM camptothecin (18), Table 1; for Top1 inhibitory activity level: series 1.

Series [2] has as its system MCF-7. Put plainly: NCI-60 cytotoxicity, MCF-7. As to conditions: Homo sapiens, MCF7, read-out: Cytotoxicity (GI50) Breast MCF-7.
The test system of series [3] is OVCAR-3. Put plainly: NCI-60 cytotoxicity, OVCAR-3. As to conditions: Homo sapiens, OVCAR-3, read-out: Cytotoxicity (GI50) Ovarian Ovcar-3.
Series [4] deals with SN12C. Put plainly: NCI-60 cytotoxicity, SN12C. As to conditions: Homo sapiens, read-out: Cytotoxicity (GI50) Renal SN12C.
The target of series [5] is Tdp1 (Homo sapiens, UniProt Q9NUW8). Put plainly: Recombinant Tdp1 assay. It counts as biochemical. The settings on record: semiquantitative scale, in duplicate; Table 1; read-out: Enzyme Inhibitory Activity Tdp1.
In series [6] the test system is NCI-60 panel of human cancer cell lines. Put plainly: NCI-60 screen, mean graph midpoint over all cell lines. As to conditions: Homo sapiens.
In series [7] the target is T2, recombinant human TDP2 (Homo sapiens, UniProt O95551).
T2 sequence (O95551 1-362): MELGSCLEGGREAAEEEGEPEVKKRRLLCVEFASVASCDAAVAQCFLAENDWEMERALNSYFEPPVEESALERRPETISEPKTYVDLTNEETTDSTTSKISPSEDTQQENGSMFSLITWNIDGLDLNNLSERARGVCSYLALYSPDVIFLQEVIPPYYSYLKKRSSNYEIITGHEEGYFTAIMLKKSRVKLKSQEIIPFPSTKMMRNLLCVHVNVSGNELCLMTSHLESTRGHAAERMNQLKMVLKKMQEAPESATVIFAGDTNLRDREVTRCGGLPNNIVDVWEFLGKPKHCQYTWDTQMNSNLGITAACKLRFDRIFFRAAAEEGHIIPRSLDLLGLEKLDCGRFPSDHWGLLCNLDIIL
Put plainly: Recombinant Tdp2 assay. It counts as biochemical. The settings on record: semiquantitative scale, in duplicate; Table 1; read-out: Enzyme Inhibitory Activity Tdp2.
Method: TDP2 reactions were carried out as described previously with the following modifications. […] Reactions were terminated and treated similarly to whole-cell extract and recombinant Tdp1 reactions (see previous paragraph).

In series [8] the test system is UACC-62. Put plainly: NCI-60 cytotoxicity, UACC-62. The settings on record: Homo sapiens, UACC-62, read-out: Cytotoxicity (GI50) Melanoma UACC-62.
For series [9], the system named is HOP-62. Put plainly: NCI-60 cytotoxicity, HOP-62. The settings on record: Homo sapiens, HOP-62, read-out: Cytotoxicity (GI50) Lung HOP-62.
Series [10] deals with SF-539. Put plainly: NCI-60 cytotoxicity, SF-539. As to conditions: Homo sapiens, SF-539, read-out: Cytotoxicity (GI50) CNS SF-539.
[11] abbreviates: read-out: Cytotoxicity (GI50) MGM.

Sequence of Tdp1 (Q9NUW8 whole entry): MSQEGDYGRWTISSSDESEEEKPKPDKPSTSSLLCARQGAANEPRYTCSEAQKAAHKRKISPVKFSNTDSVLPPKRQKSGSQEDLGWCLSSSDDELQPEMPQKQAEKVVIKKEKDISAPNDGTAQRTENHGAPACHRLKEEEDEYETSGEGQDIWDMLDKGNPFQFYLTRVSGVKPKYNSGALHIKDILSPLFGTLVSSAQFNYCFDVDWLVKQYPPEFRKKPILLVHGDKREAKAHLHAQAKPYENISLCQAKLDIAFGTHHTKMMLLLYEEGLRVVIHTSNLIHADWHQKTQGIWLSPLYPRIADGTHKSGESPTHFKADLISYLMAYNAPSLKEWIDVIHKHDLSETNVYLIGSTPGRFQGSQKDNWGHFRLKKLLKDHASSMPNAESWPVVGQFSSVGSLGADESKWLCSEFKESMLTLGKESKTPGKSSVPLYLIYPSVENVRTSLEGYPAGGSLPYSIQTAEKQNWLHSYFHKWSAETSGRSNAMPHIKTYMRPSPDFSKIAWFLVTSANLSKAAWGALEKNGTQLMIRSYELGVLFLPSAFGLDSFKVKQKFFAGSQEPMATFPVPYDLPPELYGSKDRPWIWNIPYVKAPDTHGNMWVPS

One may read the GI50 as the concentration giving 50% growth inhibition. As usually defined, the melting point is the temperature of the solid-liquid transition. For the compound `COc1cnc2c(c1)C(=O)c1c-2n(CCCN2CCN(C)CC2)c(=O)c2cc([N+](=O)[O-])ccc12` [Compound 9, 7-Aza-5,6-dihydro-6-[3-(3H-methylpiperazine-1-yl)propyl]-9-methoxy-3-nitro-5,11-dioxo-11H-indeno[1,2-c]isoquinoline], the melting point was in the range of 211 to 213 °C. Also, in series [1], the “Enzyme Inhibitory Activity Top1” value is listed as “++” and the “Top1 inhibitory activity level” value is recorded as “++”. Moreover, the concentration for 50% growth inhibition (GI50) in series [2] turned out to be 16 nM. In series [3], the GI50 worked out at 171 nM. In addition, the GI50 in [4] was found to be 214 nM. In addition, in [5], the IC50 is 12000 to 37000 nM. Further, in [6] (setting [11]), the GI50 stood at 562 nM. Further, the IC50 in [7] lay in the range of 12000 to 37000 nM. In [8], the GI50 amounted to 183 nM. For the same compound, the GI50 in series [9] is 81 nM. The GI50 in series [10] came to 191 nM.
`COc1cnc2c(c1)C(=O)c1c-2n(CCCN2CCNCC2)c(=O)c2cc([N+](=O)[O-])ccc12` [Compound 10, 7-Aza-5,6-dihydro-9-methoxy-3-nitro-5,11-dioxo-6-[3-(piperazine-1-yl)propyl]-11H-indeno[1,2-c]isoquinoline] gave a melting point of 134 to 135 °C. In series [1], the “Enzyme Inhibitory Activity Top1” value was “++” and the “Top1 inhibitory activity level” value is given as “++”. Further, the GI50 in series [2] turned out to be 36 nM. In [3], the 50% growth inhibitory concentration (GI50) is 1190 nM. Also, in [4], the GI50 turned out to be 230 nM. The IC50 in series [5] was 12000 to 37000 nM. Also, in [6] (setting [11]), the GI50 is 316 nM. Further, in series [7], the IC50 is 37000 to 111000 nM. In series [8], the GI50 was determined as 175 nM. The GI50 in [9] is 65 nM. The GI50 in [10] turned out to be 355 nM.
The compound `CNCCCn1c2c(c3ccc([N+](=O)[O-])cc3c1=O)C(=O)c1cc(OC)cnc1-2` [Compound 11] registered a melting point of 259 to 262 °C. Moreover, in series [1], the “Enzyme Inhibitory Activity Top1” value is “+++” and the “Top1 inhibitory activity level” value was “+++”. In [2], the GI50 stood at 1060 nM. Besides, the GI50 in [3] is 174 nM. The GI50 in series [4] worked out at 46 nM. In addition, in series [5], the IC50 fell in the range of 1000 to 12000 nM. Moreover, the GI50 in series [6] (setting [11]) is 741 nM. Besides, the GI50 in [6] (read-out: MGM (GI50 mean graph midpoint)) turned out to be 714 nM. Also, in series [7], the IC50 was in the range of 37000 to 111000 nM. Besides, the GI50 in series [8] amounted to 20 nM. The GI50 in series [9] was found to be 30 nM. Further, the GI50 in series [10] was 51 nM.
`COc1cnc2c(c1)C(=O)c1c-2n(CCCNCCN2CCOCC2)c(=O)c2cc([N+](=O)[O-])ccc12` [Compound 13, 7-Aza-5,6-dihydro-9-methoxy-6-[3-((2-morpholinoethyl)amino)propyl]-3-nitro-5,11-dioxo-11H-indeno[1,2-c]isoquinoline]: the melting point fell in the range of 214 to 216 °C. Moreover, in [1], the “Enzyme Inhibitory Activity Top1” value is recorded as “+++” and the “Top1 inhibitory activity level” value is recorded as “+++”. In addition, in series [2], the GI50 turned out to be 32 nM. In [3], the GI50 came out at 315 nM. The GI50 in series [4] amounted to 80 nM. In series [5], the IC50 lay within 12000 to 37000 nM. The GI50 in series [6] (setting [11]) is 177 nM. In [7], the IC50 is 37000 to 111000 nM. The 50% growth inhibitory concentration (GI50) in series [8] turned out to be 44 nM. Also, in [9], the GI50 stood at 150 nM. For the same compound, the GI50 in [10] came out at 311 nM.
Consider `COc1cnc2c(c1)C(=O)c1c-2n(CCCNC(C)C)c(=O)c2cc([N+](=O)[O-])ccc12` [Compound 14, 7-Aza-5,6-dihydro-6-[3-(isopropylamino)propyl]-9-methoxy-3-nitro-5,11-dioxo-11H-indeno[1,2-c]isoquinoline], for which the melting point lay within 278 to 280 °C. Further, in [1], the “Enzyme Inhibitory Activity Top1” value is “++++” and the “Top1 inhibitory activity level” value is reported as “++++”. Moreover, the GI50 in [2] was 12 nM. In addition, the GI50 in [3] is 82 nM. The GI50 in [4] stood at 39 nM. Further, in series [5], the IC50 fell in the range of 12000 to 37000 nM. Further, the GI50 in series [6] (setting [11]) is 58 nM. The IC50 in series [7] was 37000 to 111000 nM. Further, in [8], the GI50 was 19 nM. Further, in series [9], the GI50 was determined as 85 nM. In series [10], the GI50 was found to be 51 nM.
As to `COc1cnc2c(c1)C(=O)c1c-2n(CCCN2CCCC2)c(=O)c2cc([N+](=O)[O-])ccc12` [Compound 8, 7-Aza-5,6-dihydro-6-[3-(4-pyrrolidine-1-yl)propyl]-9-methoxy-3-nitro-5,11-dioxo-11H-indeno[1,2-c]isoquinoline], the melting point fell in the range of 248 to 250 °C. Further, in series [1], the “Enzyme Inhibitory Activity Top1” value was “++” and the “Top1 inhibitory activity level” value is “++”. For the same compound, in [2], the GI50 is under 10 nM. The GI50 in series [3] came to 59 nM. For the same compound, in [4], the GI50 stood at 36 nM. For the same compound, the IC50 in series [5] lay within 1000 to 12000 nM. The GI50 in [6] (setting [11]) stood at 45 nM. Moreover, the IC50 in series [7] fell in the range of 37000 to 111000 nM. Further, the GI50 in [8] worked out at 15 nM. Besides, the GI50 in [9] is under 10 nM. Besides, the GI50 in [10] was determined as 31 nM.
As to `COc1cnc2c(c1)C(=O)c1c-2n(CCCNC2=NCCS2)c(=O)c2cc([N+](=O)[O-])ccc12` [Compound 12, 7-Aza-5,6-dihydro-6-[3-((4,5-dihydrothiazol-2-yl)amino)propyl]-9-methoxy-3-nitro-5,11-dioxo-11H-indeno[1,2-c]isoquinoline], the melting point fell in the range of 175 to 177 °C. Besides, in series [1], the “Enzyme Inhibitory Activity Top1” value was “++++” and the “Top1 inhibitory activity level” value was “++++”. Also, the GI50 in [2] was under 10 nM. In addition, the GI50 in series [3] was determined as 137 nM. Also, in [4], the GI50 is under 10 nM. Also, the IC50 in series [5] lay in the range of 1000 to 12000 nM. In addition, the GI50 in series [6] (setting [11]) was found to be 58 nM. Moreover, the IC50 in series [7] fell in the range of 12000 to 37000 nM. The GI50 in series [8] was under 10 nM. The 50% growth inhibitory concentration (GI50) in series [9] worked out at 14 nM. Also, the GI50 in series [10] amounted to 36 nM.
In turn, `CCNCCCn1c2c(c3ccc([N+](=O)[O-])cc3c1=O)C(=O)c1cc(OC)cnc1-2` [Compound 15, 7-Aza-6-[3-(ethylamino)propyl]-5,6-dihydro-9-methoxy-3-nitro-5,11-dioxo-11H-indeno[1,2-c]isoquinoline] came in with a melting point of 266 to 268 °C. Also, in series [1], the “Enzyme Inhibitory Activity Top1” value is “++++” and the “Top1 inhibitory activity level” value is recorded as “++++”. The GI50 in series [2] amounted to 19 nM. Besides, the GI50 in [3] is 62 nM. For the same compound, the GI50 in series [4] is 53 nM. For the same compound, the IC50 in series [5] lay within 1000 to 12000 nM. In addition, the GI50 in [6] (setting [11]) is 79 nM. The IC50 in series [7] lay in the range of 37000 to 111000 nM. In series [8], the GI50 was 27 nM. Besides, in [9], the GI50 is 107 nM. For the same compound, the GI50 in [10] is 70 nM.
